From patent US11564908B2, “Beta-lactam compounds or salts thereof for use in long-acting prevention or treatment of a glucose metabolism disorder” (GLYCOLYSIS BIOMED CO., LTD., priority 2019, dated 2023)
Marks after values point to notes of the source that are not given here.

Columns and labels:
db/db mice [1] = assay: Food and water intake of mice; assay type: in vivo; settings: daily 3 weeks then stopped, DMH 0.41, MER 0.205, CEFT 0.82, PEN 1.473, TIE 0.41 mg/g bw i.p., MET 0.3 mg/g bw oral, average
Description: Four to five weeks old db/db mice (BKS.Cg-Dock7^m+/+Lepr^db/JNarl) and m/m mice (BKS.Cg-Dock7^m+/Dock7^m+) were obtained from National Laboratory Animal Center ([…], Taiwan). […] PMI Nutrition International, Brentwood, Mo.) and water ad libitum. […] The mouse body weight (bw) and the amounts of water and food intake were recorded weekly for the entire study period.

db/db mice [2] = assay: Oral glucose tolerance test (OGTT); assay type: in vivo; settings: for OGTT glucose concentration versus G8 group (FIG. 6A): week 6 (medication stopped for 3 weeks), time points of 30 min and 60 min; for OGTT glucose concentration versus G8 group (FIG. 6B): week 9 (medication stopped for 6 weeks), time points of 30 min, 60 min and 120 min
Description: Blood was sampled from the tail vein, and FPG levels were measured and recorded as the basic blood glucose levels. […] The total area under the curve (AUC) in OGTT was plotted and calculated by the Area Under Coordinates Program (StatsToDo Server, Department of Obstetrics and Gynecology, Chinese University of Hong Kong).

db/db mice [3] = assay: Histopathological assessment (H&E stain); assay type: in vivo
Source text: For histopathological assessment, all mice were sacrificed by 95% CO2 asphyxiation at the end of the study period. Their brain, liver, kidney, pancreas, and epididymal fat pads were removed, fixed in 10% phosphate-buffered formalin, and embedded in paraffin. Tissues embedded in paraffin were cut into 4-μm-thick sections that were then stained with hematoxylin-eosin (i.e., H&E stain).

db/db mice [4] = assay: Plasma biochemical parameters (AST, ALT, BUN, Cr, HbA1c); settings: daily 3 weeks then stopped, DMH 0.41, MER 0.205, CEFT 0.82, PEN 1.473, TIE 0.41 mg/g bw i.p., MET 0.3 mg/g bw oral, week 9
Description: Inflammatory markers such as serum aspartate aminotransferase (AST), alanine aminotransferase (ALT), blood urea nitrogen (BUN), creatinine (Cr), and hemoglobin A1c (HbA1c) were measured using a BMC-Hitachi 717 chemistry auto analyzer.

[5] = 0.41 mg/g bw/day i.p. for 3 weeks (Example 1)

Row | SMILES | OGTT glucose concentration versus G8 group (FIG. 6A) (db/db mice [2]) | OGTT glucose concentration versus G8 group (FIG. 6B) (db/db mice [2]) | Kidney histological changes (tubular degeneration and necrosis, mineralization deposition, hyaline cast) (db/db mice [3]; Example 2, end of study) | BUN (db/db mice [4]) | other results
1 | CC1(C)S[C@@H]2[C@H](NC(=O)Cc3ccccc3)C(=O)N2[C@H]1C(=O)O [PEN, penicillin G] | significantly lower than that in the G8 group | significantly lower than that in the G8 group |  |  | Diet intake (db/db mice [1]): 4.0 ± 0.9^a g/mice/day
2 | C[C@@H](O)[C@H]1C(=O)N2C(C(=O)O)=C(S[C@@H]3CN[C@H](C(=O)Nc4cccc(C(=O)O)c4)C3)[C@H](C)[C@H]12 [DMH, ertapenem] | significantly lower than that in the G8 group | significantly lower than that in the G8 group | more apparent in metformin-treated mice than in ertapenem-treated mice | 44 ± 2^d mg/dL | OGTT glucose concentration versus DB group (FIG. 1) (db/db mice [2]; 0.41 mg/g bw/day i.p., week 3, time points of 90 min and 120 min): significantly lower than that in the DB group; Effect on oral glucose tolerance after treatment stopped (db/db mice [2]; treatment had been stopped for 10 weeks (Example 2)): effectively increased the oral glucose tolerance; Injuries in brain, liver, kidney, pancreas and epididymal fat pads (db/db mice [3]; [5]): no significant injuries; Severity and incidence of liver glycogen storage versus DB group (db/db mice [3]; [5]): slighter than that in the DB group; Injuries in liver, kidney, pancreas and epididymal fat pads (db/db mice [3]; Example 2, end of study): No significant injuries
3 | C[C@@H](O)[C@H]1C(=O)N2C(C(=O)O)=C(S[C@@H]3CN[C@H](C(=O)N(C)C)C3)[C@H](C)[C@H]12 [MER, meropenem hydrate] |  |  |  | 43 ± 2^bd mg/dL | ALT (db/db mice [4]): 89 ± 5^bcd U/L
4 | CN(C)C(=N)N=C(N)N [Met, metformin] |  |  | more apparent in metformin-treated mice than in ertapenem-treated mice |  | 
